Measured values from the supplement of paper PMC6045584.
± gives the standard deviation of the averaged measurements.

Key:
[1] = compound: CCCS(=O)(=O)Nc1ccc(F)c(C(=O)c2c[nH]c3ncc(Cl)cc23)c1F [PLX-4720]; test: surviving fraction relative to DMSO-only wells; higher = less growth inhibition; settings: exposure time: 5 days
Procedure, shortened: (§1)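 At 250–500 cells per well in 384-well plates, log-phase tumour cell lines were seeded and, 24 hours on, exposed continuously for five days to inhibitors at 0.5, 1, 5, 10, 50, 100, 500 and 1000 nM. Viability readout was CellTiter-Glo luminescence, reported as surviving fraction normalised to the median of DMSO-only wells.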

[2] = compound: O=C(O)CC[C@H]1CC[C@@](c2cc(F)ccc2F)(S(=O)(=O)c2ccc(Cl)cc2)CC1 [MK0752]; test: as above; settings: exposure time: 5 days
Procedure, shortened: as §1

| Test System | surviving fraction ([1]; 0.5 nM) | surviving fraction ([1]; 1 nM) | surviving fraction ([1]; 5 nM) | surviving fraction ([1]; 10 nM) | surviving fraction ([1]; 50 nM) | surviving fraction ([1]; 100 nM) | surviving fraction ([1]; 500 nM) | surviving fraction ([1]; 1000 nM) | surviving fraction ([2]; 0.5 nM) | surviving fraction ([2]; 1 nM) | surviving fraction ([2]; 5 nM) | surviving fraction ([2]; 10 nM) | surviving fraction ([2]; 50 nM) | surviving fraction ([2]; 100 nM) | surviving fraction ([2]; 500 nM) | surviving fraction ([2]; 1000 nM) |
| --- | --- | --- | --- | --- | --- | --- | --- | --- | --- | --- | --- | --- | --- | --- | --- | --- |
| 22RV1 PROSTATE | 1 ± 0.011 | 0.966 ± 0.076 | 0.971 ± 0.032 | 0.958 ± 0.036 | 0.936 ± 0.04 | 0.929 ± 0.053 | 0.825 ± 0.095 | 0.872 ± 0.049 | 1.08 ± 0.069 | 1.1 ± 0.012 | 1.09 ± 0.021 | 1.04 ± 0.058 | 1.07 ± 0.092 | 1.11 ± 0.07 | 1.09 ± 0.044 | 1.08 ± 0.026 |
| 93VU HEADNECK | 0.755 ± 0.071 | 0.813 ± 0.082 | 0.798 ± 0.044 | 0.877 ± 0.024 | 1.08 ± 0.011 | 1.07 ± 0.081 | 0.998 ± 0.092 | 1.02 ± 0.054 | 1.19 ± 0.15 | 1.25 ± 0.054 | 1.14 ± 0.041 | 1.23 ± 0.086 | 1.16 ± 0.016 | 1.23 ± 0.088 | 1.13 ± 0.051 | 1.18 ± 0.1 |
| 143B BONE | 0.979 ± 0.03 | 0.972 ± 0.023 | 0.99 ± 0.021 | 0.968 | 0.959 ± 0.061 | 0.986 ± 0.0071 | 0.855 ± 0.13 | 0.996 ± 0.028 | 1 ± 0.028 | 1.04 ± 0.03 | 1.022 ± 0.0064 | 1.05 ± 0.015 | 1.02 ± 0.044 | 1.05 ± 0.026 | 1.01 ± 0.02 | 1.06 ± 0.023 |
| A549 LUNG | 0.904 ± 0.027 | 0.928 ± 0.017 | 0.922 ± 0.017 | 0.922 ± 0.03 | 0.942 ± 0.012 | 0.98 ± 0.018 | 0.975 ± 0.027 | 1.02 ± 0.047 | 1.02 ± 0.053 | 1.03 ± 0.043 | 1.06 ± 0.059 | 1.02 ± 0.062 | 1.06 ± 0.054 | 1.09 ± 0.061 | 1.07 ± 0.063 | 1.1 ± 0.038 |
| ASKA SYNOVIAL | 0.402 ± 0.04 | 0.905 ± 0.07 | 0.923 ± 0.041 | 1 ± 0.096 | 0.635 ± 0.032 | 1.21 ± 0.033 | 1.02 ± 0.077 | 1.08 ± 0.045 | 1.12 ± 0.023 | 1.16 ± 0.02 | 1.24 ± 0.038 | 1.22 ± 0.025 | 1.22 ± 0.11 | 1.23 ± 0.1 | 1.14 ± 0.087 | 1.14 ± 0.017 |
| BT20 BREAST | 0.783 ± 0.2 | 0.849 ± 0.16 | 0.774 ± 0.065 | 0.803 ± 0.056 | 1.07 ± 0.1 | 1.03 ± 0.19 | 1.05 ± 0.087 | 1.12 ± 0.067 | 1.16 ± 0.11 | 1.03 ± 0.11 | 1.09 ± 0.12 | 1.1 ± 0.17 | 1.03 ± 0.17 | 0.941 ± 0.19 | 0.914 ± 0.096 | 0.829 ± 0.19 |
| BT549 BREAST | 0.855 ± 0.11 | 0.839 ± 0.092 | 0.857 ± 0.092 | 0.902 ± 0.074 | 1.09 ± 0.036 | 1.29 ± 0.061 | 1.19 ± 0.03 | 1.05 ± 0.15 | 1.08 ± 0.14 | 1.09 ± 0.14 | 1.1 ± 0.18 | 1.11 ± 0.15 | 0.986 ± 0.1 | 1.04 ± 0.07 | 0.89 ± 0.095 | 1.03 ± 0.075 |
| CADOES1 SOFT TISSUE | 0.944 ± 0.025 | 0.935 ± 0.063 | 0.915 ± 0.051 | 0.933 ± 0.075 | 0.999 ± 0.14 | 0.869 ± 0.034 | 0.939 ± 0.075 | 1 ± 0.049 | 0.976 ± 0.09 | 1.02 ± 0.13 | 0.994 ± 0.073 | 0.953 ± 0.054 | 1.02 ± 0.14 | 0.849 ± 0.041 | 0.801 ± 0.086 | 0.931 ± 0.11 |
| CAL51 BREAST | 0.926 ± 0.04 | 0.897 ± 0.026 | 0.985 ± 0.045 | 0.939 ± 0.038 | 0.992 ± 0.027 | 1.02 ± 0.029 | 1.04 ± 0.052 | 1.05 ± 0.04 | 1.02 ± 0.015 | 0.995 ± 0.035 | 0.972 ± 0.027 | 0.967 ± 0.064 | 1.05 ± 0.013 | 0.992 ± 0.038 | 1.02 ± 0.036 | 1.02 ± 0.041 |
| CAL120 BREAST | 0.852 ± 0.027 | 0.899 ± 0.051 | 0.904 ± 0.04 | 0.881 ± 0.037 | 0.896 ± 0.022 | 0.946 ± 0.023 | 0.889 ± 0.071 | 0.911 ± 0.013 | 1.009 ± 0.0055 | 1 ± 0.047 | 1.025 ± 0.0088 | 1.01 ± 0.024 | 1.03 ± 0.018 | 1.07 ± 0.028 | 1.023 ± 0.0088 | 1 ± 0.054 |
| CASKI CERVIX | 0.795 ± 0.091 | 0.809 ± 0.029 | 0.847 ± 0.045 | 0.848 ± 0.033 | 0.97 ± 0.02 | 1.02 ± 0.033 | 0.998 ± 0.045 | 1.02 ± 0.058 | 0.896 ± 0.038 | 0.973 ± 0.061 | 1.01 ± 0.047 | 0.952 ± 0.03 | 1.08 ± 0.045 | 1.09 ± 0.061 | 0.987 ± 0.054 | 0.943 ± 0.057 |
| CHLA90 AUTONOMIC GANGLIA | 0.333 ± 0.039 | 0.922 ± 0.041 | 0.753 ± 0.041 | 0.929 ± 0.044 | 0.371 ± 0.013 | 0.94 ± 0.018 | 0.98 ± 0.049 | 1.07 ± 0.061 | 0.984 ± 0.034 | 1.05 ± 0.039 | 1.05 ± 0.04 | 1.009 ± 0.0045 | 1.01 ± 0.026 | 0.952 ± 0.044 | 1.1 ± 0.037 | 1.09 ± 0.018 |
| CME SYNOVIAL | 0.101 ± 0.0087 | 0.904 ± 0.082 | 0.732 ± 0.072 | 0.945 ± 0.23 | 0.217 ± 0.021 | 1.24 ± 0.14 | 1.02 ± 0.14 | 1.12 ± 0.044 | 1.27 ± 0.23 | 1.31 ± 0.15 | 1.29 ± 0.09 | 1.39 ± 0.029 | 1.46 ± 0.22 | 1.47 ± 0.2 | 1.24 ± 0.11 | 1.34 ± 0.14 |
| COLO320DM LARGE INTESTINE | 0.376 ± 0.022 | 0.996 ± 0.12 | 0.921 ± 0.08 | 1.07 ± 0.11 | 0.462 ± 0.075 | 1.07 ± 0.086 | 1.03 ± 0.088 | 0.979 ± 0.079 | 1.09 ± 0.11 | 1.18 ± 0.065 | 1.16 ± 0.1 | 1.18 ± 0.049 | 1.14 ± 0.01 | 1.2 ± 0.087 | 1.17 ± 0.096 | 1.25 ± 0.27 |
| DU4475 BREAST | 0.783 ± 0.23 | 0.699 ± 0.14 | 0.791 ± 0.16 | 0.741 ± 0.1 | 0.597 ± 0.19 | 0.603 ± 0.17 | 0.0833 ± 0.03 | 0.0277 ± 0.0075 | 1.04 ± 0.097 | 0.997 ± 0.16 | 0.927 ± 0.19 | 1.03 ± 0.21 | 0.967 ± 0.22 | 0.911 ± 0.26 | 0.976 ± 0.35 | 1.05 ± 0.38 |
| H23 LUNG | 0.873 ± 0.037 | 0.943 ± 0.057 | 0.93 ± 0.055 | 0.968 ± 0.068 | 0.971 ± 0.028 | 1.06 ± 0.018 | 1.06 ± 0.044 | 1.17 ± 0.014 | 1.064 ± 0.004 | 1.11 ± 0.053 | 1.1 ± 0.061 | 1.07 ± 0.063 | 1.104 ± 0.0052 | 1.17 ± 0.1 | 1.103 ± 0.0038 | 1.13 ± 0.058 |
| HCC38 BREAST | 0.812 ± 0.15 | 0.836 ± 0.19 | 0.893 ± 0.14 | 0.911 ± 0.17 | 1.03 ± 0.11 | 1.05 ± 0.28 | 1.12 ± 0.1 | 1.03 ± 0.28 | 1.22 ± 0.34 | 1.15 ± 0.21 | 1.27 ± 0.18 | 1.24 ± 0.044 | 1.21 ± 0.15 | 1.34 ± 0.28 | 1.12 ± 0.03 | 1.1 ± 0.16 |
